Reference: PMC3222648, “Inotropic Action of the Puberty Hormone Kisspeptin in Rat, Mouse and Human: Cardiovascular Distribution and Characteristics of the Kisspeptin Receptor” (PLoS ONE, 2011)
Entries after “also recorded” stand apart in the source; their conditions may differ. Where no end group is shown, it is not given here.

Legend:
kisspeptin receptor [1] = target: T1, kisspeptin receptor (Homo sapiens, UniProt Q969F8); assay: Inotropic activity in human paced atrial strips; conditions: human atrial strips
T1 construct: cryostat-cut sections of human (15 µm) or rat (10 µm) heart; from tissue; host or cells: human right atria (control, dilated cardiomyopathy, ischaemic heart disease), cryostat sections
Experimental: (§1) Paired rat or mouse atria, or 4 mm strips of human atrial appendage, were mounted in 10 ml organ baths containing oxygenated Krebs solution at 37°C as described previously. […] Experiments were terminated by the addition of 6.7 mM CaCl2 (final bath concentration 8.95 mM) and responses expressed as a % of this CaCl2 maximum. Radioligand binding study data were analyzed using the iterative, non-linear curve fitting programs EBDA and LIGAND in the KELL package (Biosoft, Cambridge, UK). Pooled KD, BMAX and Hill slopes (nH) were expressed as mean±SEM and normalized to protein concentrations. […] Where appropriate, values were compared by one-way analysis of variance (ANOVA). In all cases P<0.05 was considered statistically significant and n-values were the number of animals or patients from which data were obtained.

kisspeptin receptor [2] = target: kisspeptin receptor (Rattus norvegicus, UniProt Q924U1); assay: Inotropic activity in rat paced paired atria; set-up: Paired rat or mouse atria; from tissue; host or cells: rat paired atria
Experimental: as §1

kisspeptin receptor [3] = target: T2, kisspeptin receptor (Mus musculus, UniProt Q91V45); assay: Inotropic activity in mouse paced atria, wild type (Kiss1r ^+/+); conditions: % of CaCl2 maximum (8.95 mM final), mean ± SEM, n = 6, read-out: Emax (maximum positive inotropic response)
T2 construct: Paired rat or mouse atria; from tissue; host or cells: mouse paired atria, wild type
Experimental: (§2) Paired rat or mouse atria, or 4 mm strips of human atrial appendage, were mounted in 10 ml organ baths containing oxygenated Krebs solution at 37°C as described previously. Tension on the tissue was adjusted to 50% of that at which the maximum force was generated and then paced at 1 Hz, square-wave pulse, 5 ms duration, with the voltage just above threshold (<4.0 V). […] Experiments were terminated by the addition of 6.7 mM CaCl2 (final bath concentration 8.95 mM) and responses expressed as a % of this CaCl2 maximum.
(§3) Radioligand binding study data were analyzed using the iterative, non-linear curve fitting programs EBDA and LIGAND in the KELL package (Biosoft, Cambridge, UK). Pooled KD, BMAX and Hill slopes (nH) were expressed as mean±SEM and normalized to protein concentrations. In vitro pharmacology data agonist responses were expressed as %CaCl2 response in the paced atrial tissues and %KCl in the vasoconstrictor studies and data were fitted to a four parameter logistic equation using an iterative curve-fitting program (FigSys, Biosoft, Cambridge, UK) to obtain values for potency (pD2: the negative logarithm to the base 10 of the EC50) and maximum response (EMAX: %CaCl2 or %KCl, respectively) expressed as mean±SEM. Where appropriate, values were compared by one-way analysis of variance (ANOVA). […]

[4] = ref [47]; cited from earlier work
[5] = test system: endothelium-denuded rat aortic rings; assay: Vasoconstrictor activity in endothelium-denuded rat aorta; conditions: mean ± SEM, ET-1 n = 7, KP-10 tissues from 4 animals, KP-54 tissues from 3 animals
Experimental: Rat thoracic aorta was cleaned of connective tissue and cut into 4 mm rings and the endothelial layer removed by gentle rubbing. Tissues were set to a basal tension at which the maximum response to 100 mM KCl was generated and subsequent responses to kisspeptins were expressed as % of this KCl response. Aortic rings were then contracted with 10 µM phenylephrine and 1 µM ACh was added; a reduction in the phenylephrine response of <10% was taken as evidence of removal of endothelium. […] Experiments were terminated by the addition of 100 mM KCl and agonist responses were expressed as a % of this KCl maximum.
Radioligand binding study data were analyzed using the iterative, non-linear curve fitting programs EBDA and LIGAND in the KELL package (Biosoft, Cambridge, UK). Pooled KD, BMAX and Hill slopes (nH) were expressed as mean±SEM and normalized to protein concentrations. In vitro pharmacology data agonist responses were expressed as %CaCl2 response in the paced atrial tissues and %KCl in the vasoconstrictor studies and data were fitted to a four parameter logistic equation using an iterative curve-fitting program (FigSys, Biosoft, Cambridge, UK) to obtain values for potency (pD2: the negative logarithm to the base 10 of the EC50) and maximum response (EMAX: %CaCl2 or %KCl, respectively) expressed as mean±SEM. Where appropriate, values were compared by one-way analysis of variance (ANOVA). In all cases P<0.05 was considered statistically significant and n-values were the number of animals or patients from which data were obtained.

Kiss1r ^−/− atria = assay: Inotropic activity in atria of mice with targeted disruption of Kiss1r; set-up: species or system mouse
Experimental: as §2, §3

[6] = test system: human coronary artery and umbilical vein; conditions: ref [31]; cited from earlier work
From the text: We have recently identified a further role for kisspeptin as a vasoactive peptide. We detected kisspeptin and kisspeptin receptor expression in human vasculature, and intriguingly found this to be restricted to the aorta, coronary artery and umbilical vein, vessels with the same developmental origin. […] However, to our knowledge, a cardiac role of kisspeptin has not yet been investigated in man, nor any cardiovascular effects ...

Chain of kisspeptin receptor (Rattus norvegicus, UniProt Q924U1) (Q924U1 whole entry): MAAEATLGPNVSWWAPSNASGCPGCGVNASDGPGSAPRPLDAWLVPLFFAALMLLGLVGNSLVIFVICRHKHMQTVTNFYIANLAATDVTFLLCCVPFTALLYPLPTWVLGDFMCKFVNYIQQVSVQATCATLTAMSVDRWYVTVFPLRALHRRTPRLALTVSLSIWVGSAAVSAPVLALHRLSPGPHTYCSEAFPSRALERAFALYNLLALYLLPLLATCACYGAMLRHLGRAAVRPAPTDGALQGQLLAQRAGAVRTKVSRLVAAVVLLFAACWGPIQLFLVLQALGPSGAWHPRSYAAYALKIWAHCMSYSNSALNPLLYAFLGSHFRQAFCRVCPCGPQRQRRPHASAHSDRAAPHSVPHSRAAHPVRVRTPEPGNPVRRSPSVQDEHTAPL
T1 sequence (Q969F8 whole entry): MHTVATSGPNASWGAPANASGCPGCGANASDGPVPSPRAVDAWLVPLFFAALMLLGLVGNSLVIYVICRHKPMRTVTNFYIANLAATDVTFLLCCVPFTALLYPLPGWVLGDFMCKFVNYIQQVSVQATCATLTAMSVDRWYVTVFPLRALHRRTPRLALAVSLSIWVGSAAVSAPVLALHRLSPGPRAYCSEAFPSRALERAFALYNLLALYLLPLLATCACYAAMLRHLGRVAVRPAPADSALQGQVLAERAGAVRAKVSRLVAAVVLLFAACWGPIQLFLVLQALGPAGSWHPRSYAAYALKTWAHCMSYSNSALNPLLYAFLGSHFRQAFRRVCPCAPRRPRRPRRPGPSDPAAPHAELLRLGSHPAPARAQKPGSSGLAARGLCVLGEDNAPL
T2 sequence (Q91V45 whole entry): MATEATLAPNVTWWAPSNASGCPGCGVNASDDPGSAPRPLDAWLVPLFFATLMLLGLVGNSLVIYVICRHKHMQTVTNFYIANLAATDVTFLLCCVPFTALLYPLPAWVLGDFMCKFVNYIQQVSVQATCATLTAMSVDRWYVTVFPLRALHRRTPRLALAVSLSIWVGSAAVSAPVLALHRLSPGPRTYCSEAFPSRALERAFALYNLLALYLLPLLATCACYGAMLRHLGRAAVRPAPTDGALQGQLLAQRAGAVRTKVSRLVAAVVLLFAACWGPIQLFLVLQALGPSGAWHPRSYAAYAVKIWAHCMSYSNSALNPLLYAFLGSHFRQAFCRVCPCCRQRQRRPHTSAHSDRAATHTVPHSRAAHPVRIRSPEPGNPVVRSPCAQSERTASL

Emax (kisspeptin receptor [1]; % of CaCl2 maximum (8.95 mM final), mean ± SEM, n = 5, read-out: EMAX (maximum positive inotropic response)) | lusitropic effects (kisspeptin receptor [1]; half time to peak force and half time to relaxation) | lusitropic effects (kisspeptin receptor [2]; rat atria, half time to peak force and half time to relaxation) | Emax (kisspeptin receptor [2]; read-out: EMAX (maximum positive inotropic response)) | Emax (kisspeptin receptor [3]) | Compound | anti-angiogenic activity [4] | EMAX (maximum vasoconstrictor response) ([5]; % of 100 mM KCl maximum, endothelium-denuded rat aorta) | pD2 (vasoconstriction) ([5]; endothelium-denuded rat thoracic aortic rings, KP-10, KP-54 10^−12–3×10^−9 M, ET-1 10^−10–3×10^−7 M) | inotropic response in Kiss1r ^−/− atria (Kiss1r ^−/− atria) | vasoconstrictor activity [6]
82 ± 13% | Lusitropic effects were not observed | Lusitropic effects were not observed | 14 ± 2% | 26 ± 4% | CC[C@H](C)[C@H](NC(=O)[C@H](CCC(N)=O)NC(=O)[C@H](CCCNC(=N)N)NC(=O)[C@H](CO)NC(=O)[C@H](Cc1c[nH]cn1)NC(=O)[C@@H]1CCCN1C(=O)[C@H](C)NC(=O)[C@H](CO)NC(=O)[C@H](CC(C)C)NC(=O)CNC(=O)[C@@H]1CCCN1C(=O)[C@H](CCC(N)=O)NC(=O)[C@H](CCC(N)=O)NC(=O)[C@H](CCCNC(=N)N)NC(=O)[C@H](CO)NC(=O)CNC(=O)[C@H](CO)NC(=O)[C@H](CO)NC(=O)[C@H](CCC(=O)O)NC(=O)[C@@H]1CCCN1C(=O)[C@@H]1CCCN1C(=O)[C@@H]1CCCN1C(=O)[C@H](CO)NC(=O)[C@H](CC(C)C)NC(=O)[C@H](CO)NC(=O)[C@@H](NC(=O)CN)[C@@H](C)O)C(=O)N1CCC[C@H]1C(=O)N[C@@H](C)C(=O)N1CCC[C@H]1C(=O)N[C@@H](CCC(N)=O)C(=O)NCC(=O)N[C@@H](C)C(=O)N[C@H](C(=O)N[C@@H](CC(C)C)C(=O)N[C@H](C(=O)N[C@@H](CCC(N)=O)C(=O)N[C@@H](CCCNC(=N)N)C(=O)N[C@@H](CCC(=O)O)C(=O)N[C@@H](CCCCN)C(=O)N[C@@H](CC(=O)O)C(=O)N[C@@H](CC(C)C)C(=O)N1CCC[C@H]1C(=O)N[C@@H](CC(N)=O)C(=O)N[C@@H](Cc1ccc(O)cc1)C(=O)N[C@@H](CC(N)=O)C(=O)N[C@@H](Cc1c[nH]c2ccccc12)C(=O)N[C@@H](CC(N)=O)C(=O)N[C@@H](CO)C(=O)N[C@@H](Cc1ccccc1)C(=O)NCC(=O)N[C@@H](CC(C)C)C(=O)N[C@@H](CCCNC(=N)N)C(=O)N[C@@H](Cc1ccccc1)C(N)=O)C(C)C)C(C)C [KP-54] | anti-angiogenic | 97±1 % KCl | 10.47±0.26 | lack of effect; also recorded: no inotropic response | 
 |  |  |  |  | kisspeptin: Kisspeptin, or KP-54; also used generically for the endogenous peptides and kisspeptin-like immunoreactivity (GTSLSPPPESSGSPQQPGLSAPHSRQIPAPQGAVLVQREKDLPNYNWNSFGLRF; ends and bridges not checked; UniProt Q15726 68-121, looked up) |  |  |  | No response | potent vasoconstrictor
